The values below come from US20260159512A1, “BCAT2 INHIBITORS” (AGIOS PHARMACEUTICALS, INC., priority 2021, published 2026).

What all share (settings): average where tested multiple times
The target in test [1] is T1, BCAT2 (Homo sapiens, UniProt O15382).
T1 sequence (O15382 28-392): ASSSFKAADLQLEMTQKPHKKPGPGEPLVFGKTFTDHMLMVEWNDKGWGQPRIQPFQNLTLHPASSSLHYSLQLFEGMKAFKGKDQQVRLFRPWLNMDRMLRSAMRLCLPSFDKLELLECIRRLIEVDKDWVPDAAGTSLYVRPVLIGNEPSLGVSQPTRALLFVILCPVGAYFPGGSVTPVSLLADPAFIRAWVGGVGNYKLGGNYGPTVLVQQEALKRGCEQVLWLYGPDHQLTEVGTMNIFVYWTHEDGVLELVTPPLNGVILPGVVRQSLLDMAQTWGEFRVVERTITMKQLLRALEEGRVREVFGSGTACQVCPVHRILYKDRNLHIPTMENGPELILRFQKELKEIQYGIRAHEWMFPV
The experiment in a line: BCAT2 in vitro enzyme inhibition assay (resazurin/diaphorase-coupled fluorescence). The format is biochemical. The essentials:
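Coupled fluorescence readout: glutamate formed from L-leucine/α-ketoglutarate transamination drives GDH/NAD/diaphorase reduction of resazurin (Ex 540/Em 590). Human BCAT2 was first exposed 1 h at room temperature to compound, top final 100 μM in 3-fold, 10-point series; substrate reaction ran 1 h before SDS quench, in technical duplicate with DMSO max and enzyme-free min controls.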

Test [2] has as its target T1, BCAT2. Description: BCAT2 in vitro cell inhibition using engineered A549 cells (KMV cell assay, 13C6-KMV by LC-MS/MS). The format is cell-based. Further details: The result was an engineered A549 cell line that expressed endogenous BCAT2; endogenous in cells; host or cells: A549 cells with MUT and BCAT1 knocked out by CRISPR/CAS9; key to BCAT2 Cell Inhibition: A: less than or equal to 0.100 μM; B: greater than 0.100 and less than or equal to 0.500 μM; C: greater than 0.500 and less than or equal to 1.000 μM; d: greater than 1.000 μM; E: no fit.

A further test concerns the target T2, hBCAT1 (Homo sapiens, UniProt P54687).
T2 sequence (P54687 1-386): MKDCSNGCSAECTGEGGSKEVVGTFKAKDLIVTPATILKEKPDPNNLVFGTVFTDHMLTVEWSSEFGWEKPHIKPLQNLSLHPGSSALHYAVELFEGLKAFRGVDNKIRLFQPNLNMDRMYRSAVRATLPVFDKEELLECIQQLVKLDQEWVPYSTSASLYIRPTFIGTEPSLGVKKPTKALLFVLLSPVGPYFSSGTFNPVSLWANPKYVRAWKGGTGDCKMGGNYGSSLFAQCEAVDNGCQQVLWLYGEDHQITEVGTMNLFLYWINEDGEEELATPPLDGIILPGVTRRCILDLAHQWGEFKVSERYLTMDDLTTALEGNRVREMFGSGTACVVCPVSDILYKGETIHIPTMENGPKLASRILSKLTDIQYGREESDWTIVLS
Description: BCAT1 in vitro enzyme inhibition assay (resazurin/diaphorase-coupled fluorescence). The test is classed as biochemical. The gist of the method: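 Human BCAT1 activity read by resazurin/diaphorase-coupled fluorescence. Compounds added from 50× DMSO stocks at 1:50, giving 10-point 3-fold titrations from 100 μM top final concentration. Run in technical duplicate; repeat tests averaged.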
On the technique in general: The colour change of resazurin is a common sign of viable cells or microbes.

Regarding `O=C(NC1CCCC(n2c(-c3ccccc3F)nc3cnc(-n4nccn4)cc32)C1O)c1ncc(Cl)s1` (stereo not drawn) [Example 112, 5-chloro-N-(3-(2-(2-fluorophenyl)-6-(2H-1,2,3-triazol-2-yl)-1H-imidazo[4,5-c]pyridin-1-yl)-2-hydroxycyclohexyl)thiazole-2-carboxamide], the IC50 is not above 100 nM on BCAT2 [1], not above 100 nM on BCAT2 [2] and less than 500 nM against hBCAT1.
As to `CC(C)Cc1nc2cnc(-c3cc(C(F)(F)F)n[nH]3)cc2n1[C@@H]1CCC[C@H](NC(=O)c2ncc(Cl)s2)[C@H]1O` [Example 216, 5-chloro-N-((1S,2R,3R)-2-hydroxy-3-(2-isobutyl-6-(3-(trifluoromethyl)-1H-pyrazol-5-yl)-1H-imidazo[4,5-c]pyridin-1-yl)cyclohexyl)thiazole-2-carboxamide], the IC50 against BCAT2 [1] was 100 to 500 nM; against BCAT2 [2], more than 1000 nM; on hBCAT1 it was 1000 to 5000 nM.
Consider `CN1C[C@H](NC(=O)c2ccc(Cl)s2)C[C@H](n2c(-c3ccccc3F)nc3cnc(-c4nc[nH]n4)cc32)C1` [Example 264, 5-chloro-N-((3R,5S)-5-(2-(2-fluorophenyl)-6-(1H-1,2,4-triazol-3-yl)-1H-imidazo[4,5-c]pyridin-1-yl)-1-methylpiperidin-3-yl)thiophene-2-carboxamide], for which the IC50 was not above 100 nM at BCAT2 [1], not above 100 nM against BCAT2 [2] and less than 500 nM at hBCAT1.
With `O=C(N[C@H]1CCC[C@@H](n2c(OCC(F)(F)F)nc3cnc(-n4nccn4)cc32)C1)c1ncc(Cl)s1` [Example 101, N-((1S,3R)-3-(6-(2H-1,2,3-triazol-2-yl)-2-(2,2,2-trifluoroethoxy)-1H-imidazo[4,5-c]pyridin-1-yl)cyclohexyl)-5-chlorothiazole-2-carboxamide], the figures for the IC50 on BCAT2 [1], on BCAT2 [2] and on hBCAT1 were 100 to 500 nM, more than 1000 nM and more than 5000 nM, respectively.
In the case of `CC(C)Cc1nc2cnc(-c3ncccn3)cc2n1[C@@H]1C[C@@H](O)C[C@H](NC(=O)c2ncc(Cl)s2)C1` (stereo in doubt) [Example 397, 5-chloro-N-((1R,3S,5S)-3-hydroxy-5-(2-isobutyl-6-(pyrimidin-2-yl)-1H-imidazo[4,5-c]pyridin-1-yl)cyclohexyl)thiazole-2-carboxamide], the concentration for half-maximal inhibition (IC50) at BCAT2 [1] is more than 1000 nM; against hBCAT1, 1000 to 5000 nM. Also, the “BCAT2 Cell Inhibition” value on BCAT2 [2] is “E”.
On to `CC(C)Cc1nc2cnc(-c3cscn3)cc2n1[C@@H]1CCC[C@H](NC(=O)c2ncc(Cl)s2)C1` [Example 159, 5-chloro-N-((1S,3R)-3-(2-isobutyl-6-(thiazol-4-yl)-1H-imidazo[4,5-c]pyridin-1-yl)cyclohexyl)thiazole-2-carboxamide], for which the half-maximal inhibitory concentration (IC50) against BCAT2 [1] was not above 100 nM; on BCAT2 [2], 100 to 500 nM; on hBCAT1, less than 500 nM.
For `CC(=O)N1CC(NC(=O)c2ncc(C(F)F)s2)CC(n2c(-c3ccccn3)nc3cnc(-n4ccnn4)cc32)C1` (stereo not drawn) [Example 122, N-(1-acetyl-5-(2-(pyridin-2-yl)-6-(1H-1,2,3-triazol-1-yl)-1H-imidazo[4,5-c]pyridin-1-yl)piperidin-3-yl)-5-(difluoromethyl)thiazole-2-carboxamide], the concentration for half-maximal inhibition (IC50) was 100 to 500 nM on BCAT2 [1] and more than 5000 nM against hBCAT1. For the same compound, the “BCAT2 Cell Inhibition” value on BCAT2 [2] is given as “E”.
For `COc1ccc(-c2nc3cnc(-c4nc[nH]n4)cc3n2[C@@H]2CCC[C@H](NC(=O)c3ccc(Cl)s3)C2)c(F)c1` [Example 351, 5-chloro-N-((1S,3R)-3-(2-(2-fluoro-4-methoxyphenyl)-6-(1H-1,2,4-triazol-3-yl)-1H-imidazo[4,5-c]pyridin-1-yl)cyclohexyl)thiophene-2-carboxamide], the half-inhibitory concentration (IC50) against BCAT2 [1] lay in the range of 100 to 500 nM; on BCAT2 [2], 500 to 1000 nM; at hBCAT1 it was 1000 to 5000 nM.
As for `CC(=O)N1C[C@@H](NC(=O)c2ncc(C(F)F)s2)C[C@@H](n2c(-c3ccccc3F)nc3cnc(-c4ncco4)cc32)C1` [Example 127, N-((3S,5R)-1-acetyl-5-(2-(2-fluorophenyl)-6-(oxazol-2-yl)-1H-imidazo[4,5-c]pyridin-1-yl)piperidin-3-yl)-5-(difluoromethyl)thiazole-2-carboxamide], the IC50 is 100 to 500 nM against BCAT2 [1], more than 1000 nM on BCAT2 [2] and 1000 to 5000 nM against hBCAT1.
`O=C(N[C@H]1CCC[C@@H](n2c(-c3ccccc3F)nc3cnc(-c4nc[nH]n4)cc32)C1)c1ncc(C(F)F)s1` [Example 68, 5-(difluoromethyl)-N-[(1S,3R)-3-[2-(2-fluorophenyl)-6-(1H-1,2,4-triazol-3-yl)imidazo[4,5-c]pyridin-1-yl]cyclohexyl]thiazole-2-carboxamide]: the figures for the concentration for half-maximal inhibition (IC50) against BCAT2 [1], on BCAT2 [2] and on hBCAT1 were not above 100 nM, not above 100 nM and less than 500 nM, respectively.
With `O=C(N[C@H]1CCC[C@@H](n2c(-c3ncccc3F)nc3cnc(-n4nccn4)nc32)C1)c1ncc(C(F)F)s1` [Example 58, 5-(difluoromethyl)-N-((1S,3R)-3-(8-(3-fluoropyridin-2-yl)-2-(2H-1,2,3-triazol-2-yl)-9H-purin-9-yl)cyclohexyl)thiazole-2-carboxamide], the IC50 at BCAT2 [1] is not above 100 nM; against BCAT2 [2] it was 100 to 500 nM; against hBCAT1, 1000 to 5000 nM.
For the compound `O=C(N[C@H]1CCC[C@@H](n2c(-c3ccccc3F)nc3cnc(-c4cc(F)ccn4)cc32)C1)c1ncc(Cl)s1` [Example 168, 5-chloro-N-((1S,3R)-3-(2-(2-fluorophenyl)-6-(4-fluoropyridin-2-yl)-1H-imidazo[4,5-c]pyridin-1-yl)cyclohexyl)thiazole-2-carboxamide], the IC50 is not above 100 nM against BCAT2 [1], not above 100 nM on BCAT2 [2] and less than 500 nM on hBCAT1.

In general, IC50 refers to the point on the concentration scale where inhibition reaches its midpoint.
